Tests used:
[1] = 101 kPa, Liquid; for viscosity: Capillary tube (Ostwald / Ubbelohde) method; for mass density: Vibrating tube method
[2] = xn = mol fraction of the nth substance listed; conditions: 101 kPa, Liquid; for viscosity: Capillary tube (Ostwald / Ubbelohde) method; for mass density: Vibrating tube method

NCCO [2-aminoethan-1-ol]
[1]
Conditions	mass density [kg/m3]	viscosity [mPa·s]
298.15 K	1012	19.9
313.15 K	1000	9.61
323.15 K	992	6.72
343.15 K	976	3.69
353.15 K	968	2.85

NCCO [2-aminoethan-1-ol] + O
[2]
Conditions	mass density, 298.15 K [kg/m3]	mass density, 313.15 K [kg/m3]	mass density, 323.15 K [kg/m3]	mass density, 343.15 K [kg/m3]	mass density, 353.15 K [kg/m3]	viscosity, 298.15 K [mPa·s]	viscosity, 313.15 K [mPa·s]	viscosity, 323.15 K [mPa·s]	viscosity, 343.15 K [mPa·s]	viscosity, 353.15 K [mPa·s]
x1 = 0.06867	1005	999	994	983	977	1.7	1.18	0.95	0.67	0.58
x1 = 0.1122	1011	1003	998	986	979	2.48	1.67	1.33	0.92	0.77
x1 = 0.1643	1016	1008	1002	989	982	3.58	2.28	1.75	1.14	0.95
x1 = 0.2278	1021	1012	1005	992	984	5.51	3.39	2.54	1.57	1.28
x1 = 0.4076	1026	1016	1008	993	985	12.46	6.96	4.94	2.79	2.18
x1 = 0.7264	1020	1008	1001	985	976	19.4	10.2	7.06	3.81	2.93

— the NIST ThermoML archive (doi:10.1021/je900188m)
